Measured values reported in DBAASP.
Values after ≈ are worked out from the molar mass of the structure shown. Values joined by “and” are separate entries in the source; they are usually repeats but may differ in a detail not shown here. Equal entries are not always repeated.

Assays:
Experiment in all cases: ≥ marks a high value that may be exact or a test limit, other limits are often not marked, values filed in µg/mL are converted to µM
[1] = system: Staphylococcus aureus ATCC 25923
[2] = system: Escherichia coli C25
[3] = system: Klebsiella pneumoniae MTCC 7407
[4] = system: Citrobacter koseri MTCC 1657
[5] = system: Proteus vulgaris MTCC 1771
[6] = system: Shigella flexneri MTCC 1457
[7] = system: Stenotrophomonas maltophilia MTCC 1890
[8] = system: Alcaligenes faecalis MTCC 1937
[9] = system: Shigella boydii MTCC 11947
[10] = system: Enterococcus faecalis MTCC 439
[11] = system: Salmonella enterica MTCC 9844
[12] = system: Corynebacterium glutamicum MTCC 2679
[13] = system: Staphylococcus haemolyticus MTCC 3383
[14] = system: Klebsiella oxytoca MTCC 2275
[15] = system: Proteus mirabilis MTCC 3158
[16] = system: Klebsiella aerogenes MTCC 111
[17] = system: Citrobacter freundii MTCC 1658
[18] = system: Vibrio cholerae MTCC 3904
[19] = system: Bordetella bronchiseptica MTCC 6837
[20] = system: Escherichia coli K12 MG1655
[21] = system: Acinetobacter baumannii MTCC 9829
[22] = system: Alkalihalobacillus alcalophilus MTCC 860
[23] = system: Staphylococcus aureus MTCC 3160
[24] = system: Pluralibacter gergoviae MTCC 3826
[25] = system: Pseudomonas aeruginosa MTCC 3542
[26] = system: Haemophilus influenzae MTCC 621
[27] = system: Salmonella enterica subsp. enterica serovar Typhimurium ATCC 14028
[28] = system: Escherichia coli ATCC 25922
[29] = system: Pseudomonas aeruginosa ATCC 15692
[30] = system: Listeria monocytogenes KCTC 19111
[31] = system: Staphylococcus epidermidis KCTC 1917
[32] = system: Salmonella typhimurium KCTC 1926
[33] = system: Bacillus subtilis MTCC 14416
[34] = system: Pseudomonas aeruginosa ATCC 27853
[35] = system: Staphylococcus aureus ATCC 43300
[36] = system: Staphylococcus aureus MTCC 9542
[37] = system: Vibrio cholerae
[38] = system: Escherichia coli MG1655
[39] = system: Enterococcus faecalis ATCC 29212
[40] = system: Escherichia coli JJ2489
[41] = system: Escherichia coli BW25113
[42] = system: Salmonella enterica subsp. enterica serovar Newport
[43] = system: Salmonella enterica subsp. enterica serovar Enteritidis MH91989
[44] = system: Salmonella enterica subsp. enterica serovar Infantis
[45] = system: Escherichia coli JW0013
[46] = system: Escherichia coli JW2778 ΔygdD
[47] = system: Salmonella typhimurium SL1344
[48] = system: Escherichia coli JW0368 ΔsbmA
[49] = system: Escherichia coli
[50] = system: Escherichia coli J2210
[51] = system: Escherichia coli MC1041
[52] = system: Salmonella enterica serovar Tennessee

SMILES: CC[C@H](C)[C@H](NC(=O)CNC(=O)[C@H](CCCN=C(N)N)NC(=O)[C@H](Cc1ccc(O)cc1)NC(=O)[C@@H](NC(=O)[C@H](CCCN=C(N)N)NC(=O)[C@H](Cc1ccccc1)NC(=O)[C@H](Cc1c[nH]c2ccccc12)NC(=O)[C@H](CCCCN)NC(=O)[C@@H](N)CCCCN)C(C)C)C(=O)N[C@@H](Cc1ccc(O)cc1)C(=O)N[C@@H](CCCN=C(N)N)C(=O)N[C@@H](CCCN=C(N)N)C(=O)N[C@@H](CCCN=C(N)N)C(N)=O [KKWFRVYRGIYRRR]
- MIC [1]: 16 µM (≈ 31.7 µg/mL)
- MIC [2]: ≥ 63 µM

SMILES: CSCC[C@H](NC(=O)[C@H](CCCN=C(N)N)NC(=O)[C@H](Cc1cnc[nH]1)NC(=O)[C@H](Cc1c[nH]c2ccccc12)NC(=O)[C@H](CCCN=C(N)N)NC(=O)CNC(=O)[C@H](Cc1c[nH]c2ccccc12)NC(=O)[C@H](CCCN=C(N)N)NC(=O)[C@@H](N)CCCN=C(N)N)C(=O)N[C@@H](CCCN=C(N)N)C(=O)N[C@@H](CCCN=C(N)N)C(=O)N[C@@H](CCCN=C(N)N)C(=O)NCC(=O)N[C@@H](CCCN=C(N)N)C(=O)O [RRWGRWHRMRRRGR]
- MIC [3]: ≥ 63.3 µM
- MIC [4]: 7.91 µM (≈ 16 µg/mL)
- MIC [5]: ≥ 63.3 µM
- MIC [6]: 31.6 µM (≈ 64 µg/mL)
- MIC [7]: ≥ 63.3 µM
- MIC [8]: ≥ 63.3 µM
- MIC [9]: 31.6 µM (≈ 64 µg/mL)
- MIC [10]: ≥ 63.3 µM
- MIC [11]: ≥ 63.3 µM
- MIC [12]: 1.98 µM (≈ 4 µg/mL)
- MIC [13]: 1.98 µM (≈ 4 µg/mL)
- MIC [14]: 31.6 µM (≈ 64 µg/mL)
- MIC [15]: ≥ 63.3 µM
- MIC [16]: ≥ 63.3 µM
- MIC [17]: ≥ 63.3 µM
- MIC [18]: ≥ 63.3 µM
- MIC [19]: ≥ 63.3 µM
- MIC [20]: ≥ 63.3 µM
- MIC [21]: ≥ 63.3 µM
- MIC [22]: 15.8 µM (≈ 32 µg/mL)
- MIC [23]: ≥ 63.3 µM
- MIC [24]: ≥ 63.3 µM
- MIC [25]: ≥ 63.3 µM
- MIC [26]: ≥ 63.3 µM
- MIC [27]: > 63.3 µM

SMILES: NCCCC[C@H](NC(=O)[C@H](Cc1ccc(O)cc1)NC(=O)[C@H](Cc1c[nH]c2ccccc12)NC(=O)[C@H](CCCCN)NC(=O)[C@H](CCCCN)NC(=O)[C@H](Cc1ccc(O)cc1)NC(=O)[C@H](Cc1c[nH]c2ccccc12)NC(=O)[C@@H](N)CCCCN)C(N)=O [KWYKKWYK]
- MIC [28]: 4 µM (≈ 4.91 µg/mL)
- MIC [29]: 8 µM (≈ 9.83 µg/mL)
- MIC [1]: 64 µM (≈ 78.6 µg/mL)
- MIC [30]: 8 µM (≈ 9.83 µg/mL)
- MIC [31]: 8 µM (≈ 9.83 µg/mL)
- MIC [32]: 8 µM (≈ 9.83 µg/mL)

SMILES: CC[C@H](C)[C@@H]1NC(=O)[C@H](CCCCN)NC(=O)[C@@H](NC(=O)[C@H](CC(C)C)NC(=O)[C@@H](NC(=O)[C@H](CCC(N)=O)NC(=O)[C@@H]2CCCN2C(=O)[C@H](CC(C)C)NC(=O)[C@H](Cc2ccccc2)NC(=O)[C@H](CC(N)=O)NC(=O)[C@H](C)NC(=O)[C@H](C)NC(=O)[C@H](CC(C)C)NC(=O)CNC(=O)[C@H](C)NC(=O)[C@@H](NC(=O)[C@@H](N)Cc2c[nH]c3ccccc23)[C@@H](C)CC)[C@@H](C)CC)CSSC[C@@H](C(N)=O)NC(=O)[C@H](CCCCN)NC(=O)[C@H](CCCN=C(N)N)NC(=O)[C@H](C)NC1=O [WIAGLAANFLPQILCKIARKC]
- MIC [33]: 21.5 µM (≈ 49.9 µg/mL)
- MIC [34]: > 42.9 µM
- MIC [35]: 10.7 µM (≈ 25 µg/mL)
- MIC [36]: 5.37 µM (≈ 12.5 µg/mL)
- MIC [37]: 10.7 µM (≈ 25 µg/mL)
- MIC [38]: ≥ 42.9 µM
- MIC [39]: 21.5 µM (≈ 49.9 µg/mL)

SMILES: CC[C@H](C)[C@H](NC(=O)[C@@H]1CCCN1C(=O)[C@H](CCCCN)NC(=O)[C@@H]1CCCN1C(=O)[C@@H]1CCCN1C(=O)[C@@H](NC(=O)[C@@H]1CCCN1C(=O)[C@H](CCCN=C(N)N)NC(=O)[C@@H]1CCCN1C(=O)[C@H](CCCCN)NC(=O)[C@H](Cc1ccc(O)cc1)NC(=O)[C@H](CO)NC(=O)CNC(=O)[C@H](CCCCN)NC(=O)[C@H](CC(=O)O)NC(=O)[C@@H](N)C(C)C)[C@@H](C)O)C(=O)N[C@@H](Cc1ccc(O)cc1)C(=O)N[C@@H](CC(N)=O)C(=O)N[C@@H](CCCN=C(N)N)C(=O)N[C@@H](CC(N)=O)C(=O)O [VDKGSYKPRPTPPKPIYNRN]
- MIC [40]: 0.104 µM (≈ 0.242 µg/mL)
- MIC [41]: 0.075 µM (≈ 0.175 µg/mL)
- MIC [42]: 0.075 µM (≈ 0.175 µg/mL)
- MIC [43]: 0.6 µM (≈ 1.4 µg/mL)
- MIC [44]: 0.3 µM (≈ 0.698 µg/mL)
- MIC [45]: 0.075 µM (≈ 0.175 µg/mL)
- MIC [46]: 0.208 µM (≈ 0.484 µg/mL)
- MIC [47]: 0.15 µM (≈ 0.349 µg/mL)
- MIC [48]: 0.834 µM (≈ 1.94 µg/mL)
- MIC [49]: 0.197 µM and 0.3 µM
- MIC [50]: 0.208 µM (≈ 0.484 µg/mL)
- MIC [51]: 0.15 µM (≈ 0.349 µg/mL)
- MIC [52]: 0.3 µM (≈ 0.698 µg/mL)
